row,melting point,Structure (SMILES)
1,280 to 281 °C,"Cc1ccc(-c2c3n(c(=O)c4ncccc24)CCC(C)CN(Cc2cc(C(F)(F)F)cc(C(F)(F)F)c2)C3=O)cc1 (racemic) [Reference Example 70, (+/−)-7-[3,5-Bis(trifluoromethyl)benzyl]-6,7,8,9,10,11-hexahydro-9-methyl-5-(4-methylphenyl)-6,13-dioxo-13H-[1,4]diazocino[2,1-g][1,7]naphthyridine]"
2,270 to 271 °C,"Cc1ccc(-c2c3n(c(=O)c4ncccc24)CCN(Cc2cc(C(F)(F)F)cc(C(F)(F)F)c2)C3=O)cc1 [Reference Example 55, 7-[3,5-Bis(trifluoromethyl)benzyl]-6,7,8,9-tetrahydro-5-(4-methylphenyl)-6,11-dioxo-11H-pyrazino[2,1-g][1,7]naphthyridine]"
3,200 to 201 °C,"O=C1c2c(-c3ccccc3)ccnc2OCCN1Cc1cc(C(F)(F)F)cc(C(F)(F)F)c1 [Reference Example 65, 4-[3,5-Bis(trifluoromethyl)benzyl]-2,3,4,5-tetrahydro-5-oxo-6-phenylpyrido[3,2-f][1,4]oxazepine]"
4,226 to 228 °C,"Cc1ccc(-c2c3n(c(=O)c4ncccc24)CC[C@@H](C)CN(Cc2cc(C(F)(F)F)cc(C(F)(F)F)c2)C3=O)cc1 [Reference Example 72, (9R)-7-[3,5-Bis(trifluoromethyl)benzyl]-6,7,8,9,10,11-hexahydro-9-methyl-5-(4-methylphenyl)-6,13-dioxo-13H-[1,4]diazocino[2,1-g][1,7]naphthyridine]"
5,242 to 244 °C,"C[C@H]1CCn2c(c(-c3ccccc3)c3cccnc3c2=O)C(=O)N(Cc2cc(C(F)(F)F)cc(C(F)(F)F)c2)C1 [Reference Example 73, (9S)-7-[3,5-Bis(trifluoromethyl)benzyl]-6,7,8,9,10,11-hexahydro-9-methyl-6,13-dioxo-5-phenyl-13H-[1,4]diazocino[2,1-g] [1,7]naphthyridine]"
6,227 to 228 °C,"Cc1ccc(-c2c3n(c(=O)c4ncccc24)CC[C@H](C)CN(Cc2cc(C(F)(F)F)cc(C(F)(F)F)c2)C3=O)cc1 [Reference Example 74, (9S)-7-[3,5-Bis(trifluoromethyl)benzyl]-6,7,8,9,10,11-hexahydro-9-methyl-5-(4-methylphenyl)-6,13-dioxo-13H-[1,4]diazocino[2,1-g][1,7]naphthyridine]"
7,242 to 243 °C,"O=C1c2c(-c3ccccc3)ccnc2NCCN1Cc1cc(C(F)(F)F)cc(C(F)(F)F)c1 [Reference Example 75, 4-[3,5-Bis(trifluoromethyl)benzyl]-2,3,4,5-tetrahydro-5-oxo-6-phenyl-1H-pyrido[2,3-e][1,4]diazepine]"
8,147 to 149 °C,"Cc1cnc2c(c1-c1ccccc1)C(=O)N(Cc1cc(C(F)(F)F)cc(C(F)(F)F)c1)C[C@@H](C)CO2 [Reference Example 86, (R)-5-[3,5-Bis(trifluoromethyl)benzyl]-2,3,4,5-tetrahydro-3,8-dimethyl-6-oxo-7-phenyl-6H-pyrido[2,3-b][1,5]oxazocine]"
9,164 to 165 °C,"Cc1cc(-c2ccccc2)c2c(n1)OCCCN(Cc1cc(C(F)(F)F)cc(C(F)(F)F)c1)C2=O [Reference Example 88, 5-[3,5-Bis(trifluoromethyl)benzyl]-2,3,4,5-tetrahydro-9-methyl-6-oxo-7-phenyl-6H-pyrido[2,3-b][1,5]oxazocine]"
10,165 to 166 °C,"CSCc1cc(-c2ccccc2)c2c(n1)OCCN(Cc1cc(C(F)(F)F)cc(C(F)(F)F)c1)C2=O [Reference Example 96, 4-[3,5-Bis(trifluoromethyl)benzyl]-2,3,4,5-tetrahydro-8-methylthiomethyl-5-oxo-6-phenylpyrido[3,2-f][1,4]oxazepine]"
11,188 to 191 °C,"NCc1cc(-c2ccccc2)c2c(n1)OCCN(Cc1cc(C(F)(F)F)cc(C(F)(F)F)c1)C2=O [Reference Example 97, 8-Aminomethyl-4-[3,5-bis(trifluoromethyl)benzyl]-2,3,4,5-tetrahydro-5-oxo-6-phenylpyrido[3,2-f][1,4]oxazepine]"
12,152 to 154 °C,"CNCc1cc(-c2ccccc2)c2c(n1)OCCN(Cc1cc(C(F)(F)F)cc(C(F)(F)F)c1)C2=O [Reference Example 98, 4-[3,5-Bis(trifluoromethyl)benzyl]-2,3,4,5-tetrahydro-8-methylaminomethyl-5-oxo-6-phenylpyrido[3,2-f][1,4]oxazepine]"
13,223 to 224 °C,"CC(=O)NCc1cc(-c2ccccc2)c2c(n1)OCCN(Cc1cc(C(F)(F)F)cc(C(F)(F)F)c1)C2=O [Reference Example 102, 8-Acetylaminomethyl-4-[3,5-bis(trifluoromethyl)benzyl]-2,3,4,5-tetrahydro-5-oxo-6-phenylpyrido[3,2-f][1,4]oxazepine]"
14,194 to 195 °C,"CS(=O)(=O)NCc1cc(-c2ccccc2)c2c(n1)OCCN(Cc1cc(C(F)(F)F)cc(C(F)(F)F)c1)C2=O [Reference Example 103, 4-[3,5-Bis(trifluoromethyl)benzyl]-2,3,4,5-tetrahydro-8-methanesulfonylaminomethyl-5-oxo-6-phenylpyrido[3,2-f][1,4]oxazepine]"
15,203 to 205 °C,"Cc1cnc2c(c1-c1ccccc1)C(=O)N(Cc1cc(C(F)(F)F)cc(C(F)(F)F)c1)CCN(C)C2=O [Reference Example 104, 6-[3,5-Bis(trifluoromethyl)benzyl]-5,6,7,8,9,10-hexahydro-3,9-dimethyl-5,10-dioxo-4-phenylpyrido[2,3-f][1,4]diazocine]"
16,167 to 169 °C,"CN1CCN(Cc2cc(C(F)(F)F)cc(C(F)(F)F)c2)C(=O)c2c(-c3ccccc3)ccnc2C1=O [Reference Example 105, 6-[3,5-Bis(trifluoromethyl)benzyl]-5,6,7,8,9,10-hexahydro-9-methyl-5,10-dioxo-4-phenylpyrido[2,3-f][1,4]diazocine]"
17,183 to 184 °C,"Cc1cnc2c(c1-c1ccccc1)C(=O)N(Cc1ccccc1)CCN(C)C2=O [Reference Example 106, 6-Benzyl-5,6,7,8,9,10-hexahydro-3,9-dimethyl-5,10-dioxo-4-phenylpyrido[2,3-f][1,4]diazocine]"
18,228 to 229 °C,"CCN1CCN(Cc2cc(C(F)(F)F)cc(C(F)(F)F)c2)C(=O)c2c(ncc(C)c2-c2ccccc2)C1=O [Reference Example 107, 6-[3,5-Bis(trifluoromethyl)benzyl]-9-ethyl-5,6,7,8,9,10-hexahydro-3-methyl-5,10-dioxo-4-phenylpyrido[2,3-f][1,4]diazocine]"
19,247 to 249 °C,"Cc1cnc2c(c1-c1ccccc1)C(=O)N(Cc1cc(C(F)(F)F)cc(C(F)(F)F)c1)CCCN(C)C2=O [Reference Example 108, 6-[3,5-Bis(trifluoromethyl)benzyl]-6,7,8,9,10,11-hexahydro-3,10-dimethyl-5,11-dioxo-4-phenyl-5H-pyrido[2,3-g][1,5]diazonine]"
20,145 °C (dec.),"CNC(=O)c1cc(-c2ccccc2)c2c(n1)OCCN(Cc1cc(C(F)(F)F)cc(C(F)(F)F)c1)C2=O [Reference Example 112, 4-[3,5-Bis(trifluoromethyl)benzyl]-N-methyl-2,3,4,5-tetrahydro-5-oxo-6-phenylpyrido[3,2-f][1,4]oxazepine-8-carboxamide]"
21,235 to 236 °C,"CN(C)C(=O)c1cc(-c2ccccc2)c2c(n1)OCCN(Cc1cc(C(F)(F)F)cc(C(F)(F)F)c1)C2=O [Reference Example 113, 4-[3,5-Bis(trifluoromethyl)benzyl]-N,N-dimethyl-2,3,4,5-tetrahydro-5-oxo-6-phenylpyrido[3,2-f][1,4]oxazepine-8-carboxamide]"
22,194 to 196 °C,"CCCCNC(=O)c1cc(-c2ccccc2)c2c(n1)OCCN(Cc1cc(C(F)(F)F)cc(C(F)(F)F)c1)C2=O [Reference Example 114, 4-[3,5-Bis(trifluoromethyl)benzyl]-N-n-butyl-2,3,4,5-tetrahydro-5-oxo-6-phenylpyrido[3,2-f][1,4]oxazepine-8-carboxamide]"
23,218 to 220 °C,"O=C(c1cc(-c2ccccc2)c2c(n1)OCCN(Cc1cc(C(F)(F)F)cc(C(F)(F)F)c1)C2=O)N1CCCCC1 [Reference Example 115, 4-[3,5-Bis(trifluoromethyl)benzyl]-2,3,4,5-tetrahydro-5-oxo-6-phenyl-8-piperidinocarbonylpyrido[3,2-f][1,4]oxazepine]"
24,265 to 266 °C,"O=C(c1cc(-c2ccccc2)c2c(n1)OCCN(Cc1cc(C(F)(F)F)cc(C(F)(F)F)c1)C2=O)N1CCOCC1 [Reference Example 116, 4-[3,5-Bis(trifluoromethyl)benzyl]-2,3,4,5-tetrahydro-8-morpholinocarbonyl-5-oxo-6-phenylpyrido[3,2-f][1,4]oxazepine]"
25,177 to 179 °C,"COc1cc(CN2CCOc3nccc(-c4ccccc4)c3C2=O)cc(OC)c1OC [Reference Example 118, 2,3,4,5-Tetrahydro-5-oxo-6-phenyl-4-(3,4,5-trimethoxybenzyl)pyrido[3,2-f][1,4]oxazepine]"
26,189 to 192 °C,"O=C1c2c(-c3ccccc3)ccnc2OCCN1Cc1ccc(Cl)c(Cl)c1 [Reference Example 119, 4-(3,4-Dichlorobenzyl)-2,3,4,5-tetrahydro-5-oxo-6-phenylpyrido[3,2-f][1,4]oxazepine]"
27,175 to 176 °C,"COc1ccc(CN2CCOc3nccc(-c4ccccc4)c3C2=O)cc1OC [Reference Example 120, 4-(3,4-Dimethoxybenzyl)-2,3,4,5-tetrahydro-5-oxo-6-phenylpyrido[3,2-f][1,4]oxazepine]"
28,209 to 211 °C,"O=C1c2c(-c3ccccc3)ccnc2OCCN1Cc1ccccc1 [Reference Example 121, 4-Benzyl-2,3,4,5-tetrahydro-5-oxo-6-phenylpyrido[3,2-f][1,4]oxazepine]"
29,155 to 156 °C,"COc1cc(CN2CCCOc3nccc(-c4ccccc4)c3C2=O)cc(OC)c1OC [Reference Example 122, 2,3,4,5-Tetrahydro-6-oxo-7-phenyl-5-(3,4,5-trimethoxybenzyl)-6H-pyrido[2,3-b][1,5]oxazocine]"
30,139 to 141 °C,"C[C@@H]1COc2nccc(-c3ccccc3)c2C(=O)N(Cc2ccccc2)C1 [Reference Example 123, (S)-5-Benzyl-2,3,4,5-tetrahydro-3-methyl-6-oxo-7-phenyl-6H-pyrido[2,3-b][1,5]oxazocine]"

# Reference: patent publication US20020132817A1, “Heterocyclic compounds, their production and use” (priority 1998, published 2002)
